Data published in ChEMBL document CHEMBL5380792, “Discovery of CZS-241: A Potent, Selective, and Orally Available Polo-Like Kinase 4 Inhibitor for the Treatment of Chronic Myeloid Leukemia” (J Med Chem, 2023).

Assays:
in vitro [1] = settings: human, plasma
in vitro [2] = settings: human, plasma; remark: listed apart in the source
in vitro [3] = settings: human, plasma; remark: listed apart in the source
in vitro [4] = settings: human, liver microsomes
in vitro [5] = settings: human, plasma; remark: listed apart in the source
in vitro [6] = settings: human, plasma; remark: listed apart in the source
in vitro [7] = settings: human, liver microsomes; remark: listed apart in the source
in vitro [8] = settings: human, liver microsomes; remark: listed apart in the source

CC(C)[N+](C)(CCOC(=O)C1c2ccccc2Oc2ccccc21)C(C)C.[Br-] [PROPANTHELINE BROMIDE]
half-life (in vitro [1]): 19.8 min

COc1c(Nc2cc(C)[nH]n2)nc(Sc2ccc(S(=O)(=O)Cc3cccc([N+](=O)[O-])c3F)cc2F)nc1N1CCOCC1
remaining at 1 h (in vitro [2]): 95.4%
remaining at 10 min (in vitro [3]): 101%
remaining at 1 h (in vitro [4]): 1.7%
remaining at 2 h (in vitro [5]): 97.3%
remaining at 0.5 h (in vitro [6]): 95%
remaining at 1 h (in vitro [7]): 98.6%

O=C(O)Cc1ccccc1Nc1c(Cl)cccc1Cl [DICLOFENAC]
half-life (in vitro [8]): 3.2 min

C[C@]12CC[C@H]3[C@@H](CCC4=CC(=O)CC[C@@]43C)[C@@H]1CC[C@@H]2O [TESTOSTERONE]
half-life (in vitro [8]): 11.4 min
